Assay results as given in publication PMC3198734 (PLoS ONE, 2011).
Where no end group is shown, it is not given here.

Columns and labels:
Acinetobacter baumannii = type: cell-based; settings: data not shown
[1] = system: IL-1β, GM-CSF, KC, RANTES, MIP-1α in BAL fluid; type: in vivo, BALB/c mice

Substance | antimicrobial activity of the preparation (Acinetobacter baumannii) | BAL fluid concentration of GM-CSF compared with PR/8 infected control animals ([1]; mouse, in vivo) | BAL fluid concentration of IL-1β compared with PR/8 infected control animals ([1]; mouse, in vivo) | BAL fluid concentration of KC ([1]; mouse, in vivo) | BAL fluid concentration of MIP-1α (non-significant increase after infection) ([1]; mouse, in vivo) | BAL fluid concentration of RANTES ([1]; mouse, in vivo) | BAL fluid cytokine concentrations in the absence of influenza virus infection ([1]; uninfected mice, nebulized peptide, BAL on day 3)
GLLRKGGEKIGEKLKKIGQKIKNFFQKLVPQPEQ [mCRAMP, mouse cathelicidin peptide] | confirmed |  |  |  |  |  | 
LLGDFFRKSKEKIGKEFKRIVQRIKDFLRNLVPRTES [LL-37, human cathelicidin peptide generated from hCAP-18] | confirmed | significantly lower | significantly lower | unchanged compared with uninfected controls | this increase was ameliorated | unchanged compared with uninfected controls | did not significantly alter cytokine concentrations
RGGRLCYCRRRFCVCVGR-NH2 (also: bicyclic or more (positions not given here)) [Protegrin-1, porcine neutrophil-derived cathelicidin peptide with two disulfide bridges] | confirmed |  |  |  |  |  | 
